Measurements from publication PMC9226319, “Peripherally restricted transthyretin-based delivery system for probes and therapeutics avoiding opioid-related side effects” (Nature Communications, 2022).
Several values for one entry are separate records, joined by “and”; a condition that tells them apart may be missing. Identical values can stand only once. Entries after “also recorded” stand apart in the source; their conditions may differ. Like-named read-outs stand apart in the source and are kept apart here.

Experiments:
[1] = target: human mu-opioid receptors (Homo sapiens, UniProt P35372); experiment: biochemical; type: binding
human mu-opioid receptors, sequence (P35372 whole entry): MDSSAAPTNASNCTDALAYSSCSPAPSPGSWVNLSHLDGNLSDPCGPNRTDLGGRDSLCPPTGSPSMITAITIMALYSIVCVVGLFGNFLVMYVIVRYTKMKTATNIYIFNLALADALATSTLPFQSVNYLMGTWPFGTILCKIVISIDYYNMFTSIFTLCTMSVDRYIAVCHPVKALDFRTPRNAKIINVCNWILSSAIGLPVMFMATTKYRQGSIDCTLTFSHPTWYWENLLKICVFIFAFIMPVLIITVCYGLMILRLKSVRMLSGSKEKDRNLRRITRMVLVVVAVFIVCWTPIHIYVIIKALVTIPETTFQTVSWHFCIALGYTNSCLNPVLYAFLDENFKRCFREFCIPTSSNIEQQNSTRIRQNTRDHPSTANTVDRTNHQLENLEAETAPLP

[2] = Serum stability assay of AG10-L2-Nal, mouse serum; type: in vitro ADME; settings: 100 µM
Procedure: (§1) AG10-L2-Nal (100 μM) was incubated in sera, and the concentration remaining in respective media was determined at 0 and 48 h using HPLC. Bar graphs represent the mean of % compound remaining ± s.d. […] The plasma, brain tissue, and CSF were collected at 30 min after dosing. The ratio of the brain (ng/g) versus plasma concentration (ng/mL) is expressed as the percentage brain to plasma ratio. The ratio of the CSF (ng/mL) versus plasma concentration (ng/mL) is expressed as the percentage CSF to plasma ratio. Bar graphs show the respective mean (±s.d.) (n = 3 for each group). […] The concentration of the test compounds in plasma was determined at different time points and expressed as means ± s.d. of three biological replicates. Source data are provided as a Source Data file. […]
(§2) (Taiwan). The experimental procedure was performed as reported12. […]
(§3) Serum stability assay of AG10-L2-Nal. […] 100 μL samples were analyzed at 0 h, 24 h, and 48 h time intervals. […] The supernatant was analyzed using Waters™ XBridge C18 column (4.6x250 mm, 5μm) on Waters e2695 separations module HPLC system connected to a Waters 2998 photodiode array detector operating between the UV ranges of 200-400 nm. […]

[3] = Serum stability assay of AG10-L2-Nal, rat serum; type: in vitro ADME; settings: 100 µM
Procedure: as §1, §2, §3

[4] = Serum stability assay of AG10-L2-Nal, human serum; type: in vitro ADME; settings: 100 µM
Procedure: as §1, §2, §3

[5] = Long-term stability assay of AG10-L2-Nal in PBS buffer; type: physicochemical; settings: 100 µM, 37 °C, analysed weekly for four weeks
holo-RBP-TTR interaction = holo-RBP-TTR interaction (Homo sapiens, UniProt P02766); experiment: Effect on holo-RBP-TTR interaction in human serum (cross-linking, Western blot)
[6] = rat; for plasma concentration: SC 16 µmol/kg, individual animals
in vivo [7] = settings: male, Sprague Dawley, rat, iv, percentage CSF to plasma ratio
in vivo [8] = settings: male, Sprague Dawley, rat, sc

With `C=CCN1CC[C@]23c4c5ccc(O)c4O[C@H]2[C@@H](OCc2cn(CCNCCCCCCOc4cc(OCCCc6c(C)n[nH]c6C)cc(C(=O)O)c4)nn2)CC[C@@]3(O)[C@H]1C5` [AG10-L2-Nal] the “% Inhibition of Control Specific Binding” value [1] was 88.5%, the “fold better mu-opioid receptor binding affinity than MNTX” value [1] was 17 fold and the “fold higher mu-opioid receptor binding affinity than AG10-L1-Nal” value [1] was 5.7 fold. The Ki ([1]; binding affinity to mu-opioid receptor (Ki)) was 0.35 nM, the Ki ([1]; binding affinity to mu-opioid receptor (Ki) in the presence of TTR) was 1.3 nM and the “% compound remaining in mouse serum” value ([2]; 0 h, replicates) was 98.29% and 100.51% and 101.20%. For the same compound, the “% compound remaining in mouse serum” value ([2]; 37 °C, 48 h, table replicates) was 100% and 99.98% and 100.20% and 102.73%, the “% compound remaining in rat serum” value ([3]; 0 h, replicates) was 101.22% and 98.78% and 100.03% and the “% compound remaining in rat serum” value ([3]; 37 °C, 48 h, table replicates) was 100% and 99.06% and 98.97% and 99.95%. For the same compound, the “% compound remaining in human serum” value ([4]; 0 h, replicates) was 101.76% and 98.77% and 99.47%, the “% compound remaining in human serum” value ([4]; 37 °C, 48 h, table replicates) was 100% and 100.03% and 100.96% and 96.87% and the “chemical stability in PBS buffer” value [5] was “stable in buffer for a least one month; also recorded: chemically stable in phosphate buffer saline for at least one month at 37 °C”. The “interference with holo-RBP binding to TTR” value (holo-RBP-TTR interaction; 20 µM in human serum, 2 h 37 °C) was “does not interfere with”, the “%holo RBP binding to TTR” value (holo-RBP-TTR interaction; human serum, quantified from gel image, replicates (Supp Fig.14b)) was 7% and 8.1% and 7.9% and the plasma concentration ([6]; 0.03 h) was 1290 nM and 1240 nM and 552 nM. The plasma concentration ([6]; 0.25 h) was 5340 nM and 6840 nM, the plasma concentration ([6]; 0.5 h) was 3960 nM and 4020 nM and the plasma concentration ([6]; 0.75 h) was 3620 nM and 2900 nM. The plasma concentration ([6]; 1 h) was 3480 nM and 3260 nM, the plasma concentration ([6]; 2 h) was 1350 nM and 1760 nM and the plasma concentration ([6]; 4 h) was 1120 nM and 1540 nM. For the same compound, the plasma concentration ([6]; 6 h) was 623 nM and 938 nM, the plasma concentration ([6]; 8 h) was 699 nM and 1120 nM and the plasma concentration ([6]; 12 h) was 166 nM and 200 nM and 516 nM. The plasma concentration ([6]; 24 h) was 49.7 nM and 31.1 nM, the k ([6]; single SC dose 16 µmol/kg) was 0.20 ± 0.04 h⁻¹ and the Kp (in vivo [7]) was 0.01. For the same compound, the AUC(0-inf) (in vivo [8]; 16 umol/kg) was 17.6 ± 2.54 µM·h, the CL/F (in vivo [8]; 16 umol/kg) was 15.3 mL/min/kg and the Vd/F (in vivo [8]; 16 umol/kg) was 4.89 ± 1.83 L/kg. The half-life (in vivo [8]; 16 umol/kg) was 3.62 ± 0.76 h, the concentration at 0.25 h (in vivo [8]; 16 µmol/kg, plasma concentration, SC 16 µmol/kg, 0.25 h, individual animals) was 7560 nM and the concentration at 0.5 h (in vivo [8]; 16 µmol/kg, plasma concentration, SC 16 µmol/kg, 0.5 h, individual animals) was 4680 nM. The concentration at 0.75 h (in vivo [8]; 16 µmol/kg, plasma concentration, SC 16 µmol/kg, 0.75 h, individual animals) was 4580 nM, the concentration at 1 h (in vivo [8]; 16 µmol/kg, plasma concentration, SC 16 µmol/kg, 1 h, individual animals) was 4240 nM and the concentration at 2 h (in vivo [8]; 16 µmol/kg, plasma concentration, SC 16 µmol/kg, 2 h, individual animals) was 2370 nM. For the same compound, the concentration at 4 h (in vivo [8]; 16 µmol/kg, plasma concentration, SC 16 µmol/kg, 4 h, individual animals) was 1470 nM, the concentration at 6 h (in vivo [8]; 16 µmol/kg, plasma concentration, SC 16 µmol/kg, 6 h, individual animals) was 1050 nM and the concentration at 8 h (in vivo [8]; 16 µmol/kg, plasma concentration, SC 16 µmol/kg, 8 h, individual animals) was 727 nM. It also gave a concentration at 24 h (in vivo [8]; 16 µmol/kg, plasma concentration, SC 16 µmol/kg, 24 h, individual animals) of 40.6 nM.
